Experimental data: patent US4333947A, “Substituted imidazoles and their use” (Farmos-Yhtyma Oy, priority 1980, dated 1982)
Like-named read-outs stand apart in the source and are kept apart here.

Tests used:
Candida albicans = assay: antifungal activity in vitro, agar diffusion method, Candida albicans; assay type: cell-based; details: 1000 μg/ml
Method: (§1) The antimicrobial activity was determined in vitro according to a qualitative test for antibacterial and antifungal activity, using the agar diffusion method, against the following standard organisms: Staphylococcus aureus, Streptococcus pyogenes, Escherichia coli, Proteus mirabilis, Pseudomonas aeruginosus, Candida albicans and Aspergillus niger.

Sprague-Dawley rats = assay: blood pressure and pulse frequency in anesthetized rats of normal weight; assay type: in vivo; details: for minimal effective dose: Rattus norvegicus, iv, anesthetized rats, i.v.
Method: The anti-hypertensive properties of the imidazole derivatives of the present invention have been determined according to the following procedure. Sprague-Dawley rats of normal weight were first anesthetized with urethane. After this, the femoral artery was connected by way of a polyethylene tube with a blood pressure transducer. The test substance was then injected into the femoral vein and the blood pressure and the pulse frequency were registered with a recorder.

[1] = acute toxicity, i.v., female mice of NMRI-Strain; details: mouse, in vivo, iv
Method: Acute toxicity was determined by using female mice of NMRI-Strain with an age of about 7 months and weighing 30-40 g. The administration of the test compound was i.v.

[2] = test system: all the bacterial species; assay: antibacterial activity in vitro, agar diffusion method, all bacterial species; assay type: cell-based; details: 1000 μg/ml
Method: as §1

Aspergillus niger = assay: antifungal activity in vitro, agar diffusion method, Aspergillus niger; assay type: cell-based; details: 1000 μg/ml
Method: as §1

[3] = test system: all standard bacterial and fungal species; assay: antimicrobial activity in vitro, agar diffusion method, all standard bacterial and fungal species; assay type: cell-based; details: 1000 μg/ml
Method: as §1

rats = assay: diuretic effect in rats, urine output 0-5 hours after i.p. injection; assay type: in vivo
Method: The diuretic effect was studied in rats by collecting the urine output during 0-5 hours after i.p. injection of the compound. Before the test the rats were fasting overnight and got 10 ml water p.o. immediately before the injection.

[4] = test system: arachidonic acid induced pulmonary thromboembolism; assay: antithrombotic activity in vivo, arachidonic acid induced pulmonary thromboembolism in mice; details: 10 mg/kg p.o.
Method: The antithrombotic activity was investigated in vivo in mice as follows: The compounds to be tested were administered orally. After this arachidonic acid was given i.v. The inhibiting activity of the test compounds against arachidonic acid induced pulmonary thromboembolism was investigated.

fungi = assay: antifungal activity in vitro, agar diffusion method, fungi; assay type: cell-based, Candida albicans and Aspergillus niger; details: 1000 μg/ml
Method: as §1

[5] = test system: isoprenaline-induced chronotropic and inotropic action in the isolated atrium; assay: β-blocking activity in vitro, isoprenaline-induced chronotropic and inotropic action in isolated guinea-pig atrium; assay type: cell-based; details: Cavia porcellus; 1 μg/ml; read-out: inhibition of isoprenaline-induced chronotropic effect
Method: The β-blocking activity was measured in vitro as follows: The atrium of a guinea-pig was isolated. The inhibiting activity of the compound against isoprenaline-induced chronotropic and inotropic action in the isolated atrium was measured.

[6] = test system: collagen-induced aggregation of thrombocytes; assay: antithrombotic activity in vitro, collagen-induced aggregation of thrombocytes; assay type: cell-based; details: cow thrombocytes, 10 min incubation
Method: (§2) In a further test the antithrombotic activity was investigated in vitro. The inhibiting activity of the compounds against ADP- and collagen-inducedaggregation of thrombocytes was measured. In the test thrombocytes from a cow was used. To 1.2 ml of plasma containing 250000 thrombocytes/mm^3 were added 50 μl of a solution of the compound to be tested. After 10 min incubation either ADP or collagen was added. The aggregation of the thrombocytes was turbidimetrically determined at λ=605 n m.

[7] = test system: ADP-induced aggregation of thrombocytes; assay: antithrombotic activity in vitro, ADP-induced aggregation of thrombocytes; assay type: cell-based; details: cow thrombocytes, 10 min incubation
Method: as §2

Staph. aureus = assay: antibacterial activity in vitro, agar diffusion method, Staph. aureus; assay type: cell-based, Staphylococcus aureus; details: 100 μg/ml
Method: as §1

E. coli = assay: antibacterial activity in vitro, agar diffusion method, E. coli; assay type: cell-based, Escherichia coli; details: 100 μg/ml
Method: as §1

[8] = test system: all other bacterial and fungal species; assay: antimicrobial activity in vitro, agar diffusion method, all other bacterial and fungal species (than E. coli and Staph. aureus); assay type: cell-based; details: 1000 μg/ml
Method: as §1

[9] = read-out: dose i.v. causing a registrable lowering of the blood pressure
[10] = 1 mg/kg, 20 minutes after administration
[11] = 300 μg/kg i.v., 20 minutes after administration

In the case of `Cc1[nH]cnc1C=Cc1c(Cl)cccc1Cl` [4-[2-(2',6'-Dichlorophenyl)-ethenyl]-5-methyl-imidazole], the “activity against Candida albicans” value (Candida albicans) is reported as “active”, the “lowering of the blood pressure” value (Sprague-Dawley rats; 3 mg/kg i.v., 20 minutes after administration) is reported as 30% and the minimal effective dose (Sprague-Dawley rats; read-out: dose i.v. at which a decrease of pulse frequency was noticed) is reported as 1 mg/kg. The minimal effective dose (Sprague-Dawley rats; [9]) was 0.3 mg/kg, the LD50 [1] was 100 mg/kg and the “activity against all the bacterial species” value [2] was “active”. For the same compound, the “activity against Aspergillus niger” value (Aspergillus niger) was “inactive”.

For `Clc1cccc(Cl)c1C=Cc1c[nH]cn1` [4-[2-(2',6'-Dichlorophenyl)-ethenyl]-imidazole], the “decrease of pulse frequency” value (Sprague-Dawley rats; [10]) was 30%, the “lowering of the blood pressure” value (Sprague-Dawley rats; [10]) was 25% and the LD50 [1] was 85 mg/kg. For the same compound, the “antimicrobial activity against all standard bacterial and fungal species” value [3] was “active”, the “diuretic effect (5h)” value (rats; 0.005 mg/kg i.p.) was 128% and the “diuretic effect (5h)” value (rats; 0.05 mg/kg i.p.) was 132%. For the same compound, the “diuretic effect (5h)” value (rats; 0.5 mg/kg i.p.) was 135%.

With `Cc1cccc(C)c1/C=C/c1c[nH]cn1` [4-[2-(2',6'-Dimethylphenyl)-ethenyl]-imidazole] the “decrease of pulse frequency” value (Sprague-Dawley rats; [11]) was 24%, the “reduction of the blood pressure” value (Sprague-Dawley rats; [11]) was 20% and the minimal effective dose (Sprague-Dawley rats; [9]) was 0.01 mg/kg. The LD50 [1] was 50 mg/kg.

For `Cc1[nH]cnc1C=Cc1ccccc1Cl` [4-[2-(2'-Chlorophenyl)-ethenyl]-5-methyl-imidazole], the “mice protected from arachidonic acid-induced pulmonary thromboembolism” value [4] was 4 of 5, the LD50 [1] was 85 mg/kg and the “activity against all the bacterial species” value [2] was “active”. The “activity against the fungi” value (fungi) was “not against the fungi” and the inhibition at 1 µg/mL [5] was 67%.

In the case of `Cc1cccc(CC=Cc2c[nH]cn2)c1C` [4-[3-(2',3'-Dimethylphenyl)-1-propenyl]-imidazole], the “decrease of the blood pressure” value (Sprague-Dawley rats; 0.3-1 mg/kg i.v., 20 minutes after administration) is reported as 20%, the “inhibition of collagen-induced thrombocyte aggregation” value [6] is reported as “completely” and the LD50 [1] is reported as 75 mg/kg. The “inhibition of ADP-induced thrombocyte aggregation” value [7] was “clearly”.

In the case of `Cc1cccc(C)c1CC=Cc1c[nH]cn1` [4-[3-(2',6'-Dimethylphenyl)-1-propenyl]-imidazole], the “decrease of the blood pressure” value (Sprague-Dawley rats; 1-3 mg/kg i.v., 20 minutes after administration) is reported as 20% and the LD50 [1] is reported as 75 mg/kg.

In the case of `Cc1cccc(C)c1CCCC=Cc1c[nH]cn1` [4-[5-(2',6'-Dimethylphenyl)-1-pentenyl]-imidazole], the “activity against Staph. aureus” value (Staph. aureus) is reported as “active”, the LD50 [1] is reported as 40 mg/kg and the “activity against E. coli” value (E. coli) is reported as “active”. For the same compound, the “activity against all other bacterial and fungal species” value [8] was “active” and the inhibition at 1 µg/mL [5] was 57%.
